These results are taken from patent publication US7772210B2, “Cystitis treatment with high dose chondroitin sulfate” (Stellar Pharmaceuticals Inc., priority 2004, dated 2010).

A short description of data set [1]: Solubility of CS in water. As to conditions: room temperature, sterile, distilled water. The class given is physicochemical. An excerpt:
In accordance with the present invention, the unit dose of CS administered to the patient is at least 250 mgs. More desirably, the unit dose of CS is at least 300 mgs. Preferably, the unit dose is at least 350 mgs. More preferably, the unit dose is at least 400 mgs. The upper end of the acceptable unit dose is capped, in theory, only by the solubility of the given type of CS in the chosen aqueous vehicle, and by the volume of that vehicle used in therapy. At room temperature and in sterile, distilled water, the solubility of CS approaches 50%. Thus, the upper limit of the CS unit dose can be 500 mgs/mL of vehicle. In accordance with the present invention, the unit dose of CS is desirably formulated in a solution volume that is sufficient to expose the bladder surface to be treated, and is at least tolerable and more desirably comfortable for the patient. The upper limit for such volumes lies below the volume causing hydrodistention, which is about 250 mL in some patients. For adult patients, solution volumes are suitably from about 5 mL or 10 mL up to about 100 mL, e.g. up to about 75 mL, and preferably up to about 50 mL. In a specific embodiment of the invention, a solution volume of about 40 mL is utilized. Accordingly, the upper limit of the unit dose of CS administrable to the patient at this volume can approach 20,000 mgs.

Data set [2] has as its system patients diagnosed with cystitis. The note with it: 80 mgs and up to 200 mgs as a 40 mL instillation; cited from earlier work.

As for chondroitin sulfate [CS], the solubility result in data set [1] is recorded as “about 50%”. Moreover, in data set [2], the “relief of symptoms including frequency, pain and urgency” value was “provided relief from at least one symptom”.
